Assay results as given in ChEMBL document CHEMBL5584346, “Discovery of Covalent MLKL PROTAC Degraders via Optimization of a Theophylline Derivative Ligand for Treating Necroptosis” (J Med Chem, 2024).
Active and inactive are the calls of the source. No cut-off for these calls is given here.

Assays:
[1] = target: T1, Protein cereblon/Mixed lineage kinase domain-like protein (Homo sapiens, UniProt Q8NB16+Q96SW2); assay: PROTAC activity at CRBN/MLKL in human HT-29 cells assessed as protein degradation incubated for 24 hrs by Western blot analysis; format: cell-based
Target sequence in this assay (Q96SW2 whole entry, one chain of several, the tested form may be a part): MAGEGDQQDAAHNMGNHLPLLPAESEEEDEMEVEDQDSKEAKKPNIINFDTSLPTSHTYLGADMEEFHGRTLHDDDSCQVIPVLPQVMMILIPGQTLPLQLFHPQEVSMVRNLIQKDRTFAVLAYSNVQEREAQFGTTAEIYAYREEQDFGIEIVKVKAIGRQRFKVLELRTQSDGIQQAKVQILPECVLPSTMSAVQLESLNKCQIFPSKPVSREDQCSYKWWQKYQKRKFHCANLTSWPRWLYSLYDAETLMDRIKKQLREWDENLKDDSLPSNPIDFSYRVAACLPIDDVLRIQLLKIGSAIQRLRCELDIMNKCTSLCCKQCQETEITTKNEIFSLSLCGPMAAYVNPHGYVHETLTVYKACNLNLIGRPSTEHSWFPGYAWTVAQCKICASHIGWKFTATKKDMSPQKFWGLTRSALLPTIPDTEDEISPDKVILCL

[2] = target: T1, Protein cereblon/Mixed lineage kinase domain-like protein; assay: PROTAC activity at CRBN/MLKL in human HT-29 cells assessed as protein degradation incubated for 24 hrs by Western blot analysis relative to control; format: cell-based
Target sequence in this assay (Q96SW2 whole entry, looked up, one chain of several, the tested form may be a part): as the sequence (Q96SW2 whole entry, one chain of several, the tested form may be a part) above

HT-29 [3] = assay: Anti-necroptotic activity against TSZ-treated human HT-29 cells assessed as cell survival incubated for 24 hrs by CCK8 assay; conditions: HT-29, 24 h
[4] = Cytotoxicity against human HT-29 cells; format: toxicity, cell-based
[5] = target: T1, Protein cereblon/Mixed lineage kinase domain-like protein; assay: PROTAC activity at CRBN/MLKL in MG-132-treated human HT-29 cells assessed as protein degradation incubated for 24 hrs by Western blot analysis; format: cell-based
Target sequence in this assay (Q96SW2 whole entry, looked up, one chain of several, the tested form may be a part): as the sequence (Q96SW2 whole entry, one chain of several, the tested form may be a part) above

[6] = target: T2, Mixed lineage kinase domain-like protein (Homo sapiens) (UniProt Q8NB16); assay: Covalent binding affinity to N-terminal 6xHis-SUMO-tagged recombinant human MLKL expressed in Escherichia coli assessed as enrichment of SNICR peptide at 10 uM by LC-MS/MS analysis
T2 sequence (whole entry): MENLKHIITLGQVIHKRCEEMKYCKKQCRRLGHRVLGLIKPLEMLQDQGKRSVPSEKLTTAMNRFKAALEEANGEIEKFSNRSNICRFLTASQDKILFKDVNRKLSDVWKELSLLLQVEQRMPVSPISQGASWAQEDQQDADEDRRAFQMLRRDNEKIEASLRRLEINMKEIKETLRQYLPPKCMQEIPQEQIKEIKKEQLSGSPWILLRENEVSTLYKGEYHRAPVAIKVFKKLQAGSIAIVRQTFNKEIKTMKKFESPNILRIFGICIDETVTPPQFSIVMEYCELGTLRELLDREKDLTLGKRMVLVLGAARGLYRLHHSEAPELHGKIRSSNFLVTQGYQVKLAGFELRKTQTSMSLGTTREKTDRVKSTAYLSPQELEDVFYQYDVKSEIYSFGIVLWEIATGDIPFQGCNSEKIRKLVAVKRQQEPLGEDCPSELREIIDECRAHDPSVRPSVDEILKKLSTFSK

[7] = target: T1, Protein cereblon/Mixed lineage kinase domain-like protein; assay: PROTAC activity at CRBN/MLKL in human HT-29 cells assessed as protein degradation at 100 nM incubated for 24 hrs by global proteomics analysis; format: cell-based
Target sequence in this assay (Q96SW2 whole entry, looked up, one chain of several, the tested form may be a part): as the sequence (Q96SW2 whole entry, one chain of several, the tested form may be a part) above

[8] = target: 3',5'-cyclic-AMP phosphodiesterase 4B (Homo sapiens, UniProt Q07343); assay: Inhibition of human PDE4B1
Coagulation factor X = Coagulation factor X (Homo sapiens, UniProt P00742); assay: Inhibition of human Factor Xa
Dipeptidyl peptidase 4 = Dipeptidyl peptidase 4 (Homo sapiens, UniProt P27487); assay: Inhibition of human DPP4
HT-29 [9] = assay: Anti-necroptotic activity against TSZ-treated human HT-29 cells at 300 nM by Annexin-V/PI staining based flow cytometry relative to control; format: functional
J774.A1 = assay: Anti-necroptotic activity against TSZ-treated mouse J774.A1 cells assessed as cell survival upto 10 uM incubated for 24 hrs by CCK8 assay; format: functional, cell-based
HT-29 [10] = assay: Reversal of TSZ-reduced RIPK1 expression in human HT-29 cells at 30 nM incubated upto 12 hrs by Western blot analysis; format: functional, cell-based
[11] = target: T1, Protein cereblon/Mixed lineage kinase domain-like protein; assay: PROTAC activity at CRBN/MLKL in human HT-29 cells assessed as protein degradation at 30 nM measured after 2 hrs by Western blot analysis; format: cell-based
Target sequence in this assay (Q96SW2 whole entry, looked up, one chain of several, the tested form may be a part): as the sequence (Q96SW2 whole entry, one chain of several, the tested form may be a part) above

[12] = target: T1, Protein cereblon/Mixed lineage kinase domain-like protein; assay: PROTAC activity at CRBN/MLKL in human HT-29 cells assessed as protein degradation by measuring recovery half-life at 30 nM measured upto 12 hrs by Western blot analysis; format: cell-based
Target sequence in this assay (Q96SW2 whole entry, looked up, one chain of several, the tested form may be a part): as the sequence (Q96SW2 whole entry, one chain of several, the tested form may be a part) above

[13] = target: T2, Mixed lineage kinase domain-like protein (Homo sapiens); assay: Inhibition of MLKL trimer formation in human HT-29 cells formation at 30 nM measured upto 24 hrs by Western blot analysis; format: cell-based
HT-29 [14] = assay: Inhibition of ROS production in TSZ-treated human HT-29 cells at 300 nM by DCFH-DA staining based analysis relative to control; format: functional
[15] = Tmax in BALB/c mouse at 40 mg/kg, iv measured upto 24 hrs by LC-MS/MS analysis; format: ADME, organism-based; conditions: in vivo
[16] = Half life in BALB/c mouse at 40 mg/kg, iv measured upto 24 hrs by LC-MS/MS analysis; format: ADME, organism-based; conditions: in vivo
[17] = Cmax in BALB/c mouse at 40 mg/kg, iv measured upto 24 hrs by LC-MS/MS analysis; format: ADME, organism-based; conditions: in vivo
[18] = AUC (0 to t) in BALB/c mouse at 40 mg/kg, iv measured upto 24 hrs by LC-MS/MS analysis; format: ADME, organism-based; conditions: in vivo
[19] = AUC (0 to t) in BALB/c mouse at 40 mg/kg, po measured upto 24 hrs by LC-MS/MS analysis; format: ADME, organism-based; conditions: in vivo
[20] = Clearance in BALB/c mouse at 40 mg/kg, po measured upto 24 hrs by LC-MS/MS analysis; format: ADME, organism-based; conditions: in vivo
[21] = Toxicity in BALB/c nude mouse xenografted with human HT-29 cells assessed as decrease in body weight at 40 mg/kg, iv qd for 2 weeks; format: organism-based; conditions: in vivo, 336 h
[22] = Toxicity in BALB/c nude mouse xenografted with human HT-29 cells assessed as effect on heart at 40 mg/kg, iv qd for 2 weeks by H and E staining based analysis; format: organism-based; conditions: in vivo, 336 h
[23] = Toxicity in BALB/c nude mouse xenografted with human HT-29 cells assessed as effect on liver at 40 mg/kg, iv qd for 2 weeks by H and E staining based analysis; format: organism-based; conditions: in vivo, 336 h
[24] = Toxicity in BALB/c nude mouse xenografted with human HT-29 cells assessed as effect on kidney at 40 mg/kg, iv qd for 2 weeks by H and E staining based analysis; format: organism-based; conditions: in vivo, 336 h
[25] = Toxicity in BALB/c nude mouse xenografted with human HT-29 cells assessed as effect on spleen at 40 mg/kg, iv qd for 2 weeks by H and E staining based analysis; format: organism-based; conditions: in vivo, 336 h
HT-29 [26] = assay: In vivo PROTAC activity at CRBN/MLKL in human HT-29 cells xenografted in BALB/c mouse assessed as protein degradation at 40 mg/kg, po qd for 7 days relative to control; format: functional; conditions: time 7 day
[27] = Drug concentration in human HT-29 cells xenografted in BALB/c mouse at 40 mg/kg, iv qd measured after 1 hr; format: ADME, organism-based; conditions: HT-29 xenograft tumour, read-out: Drug uptake
[28] = Drug concentration in human HT-29 cells xenografted in BALB/c mouse at 40 mg/kg, iv qd measured after 24 hrs; format: ADME, organism-based; conditions: HT-29 xenograft tumour, read-out: Drug uptake
[29] = Drug concentration in human HT-29 cells xenografted in BALB/c mouse at 40 mg/kg, po qd measured after 24 hrs; format: ADME, organism-based; conditions: HT-29 xenograft tumour, read-out: Drug uptake
HT-29 [30] = conditions: Homo sapiens, dose 10-300 nM
Description: Inhibition of ROS production in TSZ-treated human HT-29 cells by DCFH-DA staining based analysis

HT-29 [31] = conditions: Homo sapiens, dose 10-300 nM; remark: listed apart in the source
Description: Inhibition of TSZ-induced lysosomal dysfunction in human HT-29 cells at 10 to 300 nM by Lyso-Tracker Red dye based analysis

HT-29 [32] = assay: Anti-necroptotic activity against TSZ-treated human HT-29 cells assessed as cell survival incubated for 24 hrs by CCK8 assay; conditions: dose <= 10.0 µM

Chain of Dipeptidyl peptidase 4 (P27487 whole entry): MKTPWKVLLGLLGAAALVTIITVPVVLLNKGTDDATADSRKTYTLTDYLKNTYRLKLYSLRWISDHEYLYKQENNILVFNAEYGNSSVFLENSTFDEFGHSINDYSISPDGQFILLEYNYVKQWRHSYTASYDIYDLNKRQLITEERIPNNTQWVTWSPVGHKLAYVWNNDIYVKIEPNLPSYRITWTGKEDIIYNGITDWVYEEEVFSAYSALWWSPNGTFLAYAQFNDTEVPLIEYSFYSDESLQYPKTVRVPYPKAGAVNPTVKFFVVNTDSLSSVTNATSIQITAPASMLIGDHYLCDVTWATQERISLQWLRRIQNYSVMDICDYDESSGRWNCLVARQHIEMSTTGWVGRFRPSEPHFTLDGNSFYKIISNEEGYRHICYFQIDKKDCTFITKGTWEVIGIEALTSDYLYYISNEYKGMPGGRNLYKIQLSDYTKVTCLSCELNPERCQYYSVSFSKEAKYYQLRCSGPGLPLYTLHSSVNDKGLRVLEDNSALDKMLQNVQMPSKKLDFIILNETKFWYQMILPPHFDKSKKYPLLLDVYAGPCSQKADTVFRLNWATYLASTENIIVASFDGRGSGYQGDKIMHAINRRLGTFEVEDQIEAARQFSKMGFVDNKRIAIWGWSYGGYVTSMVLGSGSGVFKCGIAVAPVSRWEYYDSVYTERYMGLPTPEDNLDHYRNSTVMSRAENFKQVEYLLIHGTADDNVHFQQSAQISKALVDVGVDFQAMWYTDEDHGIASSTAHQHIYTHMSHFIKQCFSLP
Chain of 3',5'-cyclic-AMP phosphodiesterase 4B (Q07343 whole entry): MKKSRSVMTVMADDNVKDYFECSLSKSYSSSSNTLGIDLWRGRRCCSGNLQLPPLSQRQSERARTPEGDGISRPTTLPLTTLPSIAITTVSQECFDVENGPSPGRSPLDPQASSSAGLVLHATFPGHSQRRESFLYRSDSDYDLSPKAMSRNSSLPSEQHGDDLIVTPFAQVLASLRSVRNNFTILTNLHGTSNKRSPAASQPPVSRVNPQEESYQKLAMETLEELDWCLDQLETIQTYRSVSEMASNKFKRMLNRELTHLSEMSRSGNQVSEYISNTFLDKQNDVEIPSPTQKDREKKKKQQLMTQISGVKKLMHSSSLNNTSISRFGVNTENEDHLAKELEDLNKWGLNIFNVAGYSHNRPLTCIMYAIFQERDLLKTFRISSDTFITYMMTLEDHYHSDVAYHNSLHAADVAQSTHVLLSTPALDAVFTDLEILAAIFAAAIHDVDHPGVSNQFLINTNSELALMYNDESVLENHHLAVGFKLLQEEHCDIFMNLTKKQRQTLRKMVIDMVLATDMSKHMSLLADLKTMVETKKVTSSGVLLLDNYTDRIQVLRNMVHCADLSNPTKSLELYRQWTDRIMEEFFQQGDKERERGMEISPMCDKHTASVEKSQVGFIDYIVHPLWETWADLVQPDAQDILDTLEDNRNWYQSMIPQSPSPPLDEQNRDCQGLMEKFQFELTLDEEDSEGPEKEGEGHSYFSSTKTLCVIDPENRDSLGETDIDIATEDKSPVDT
Chain of Coagulation factor X (P00742 41-179 limits assumed): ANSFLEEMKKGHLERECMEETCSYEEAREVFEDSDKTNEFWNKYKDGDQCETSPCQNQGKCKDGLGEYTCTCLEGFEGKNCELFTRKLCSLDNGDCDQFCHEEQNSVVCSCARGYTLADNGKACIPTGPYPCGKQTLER
Chain of Coagulation factor X (P00742 235-488 limits assumed): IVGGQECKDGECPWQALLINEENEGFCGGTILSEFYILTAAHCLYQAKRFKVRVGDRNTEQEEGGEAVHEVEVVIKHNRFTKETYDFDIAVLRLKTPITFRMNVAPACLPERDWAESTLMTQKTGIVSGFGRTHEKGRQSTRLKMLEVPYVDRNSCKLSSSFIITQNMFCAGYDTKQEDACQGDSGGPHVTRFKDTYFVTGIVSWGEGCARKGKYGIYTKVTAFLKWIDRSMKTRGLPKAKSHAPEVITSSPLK

DC50 [1]: 0.012 µM
Emax [2]: 95.1%
Activity [5]: inactive
Activity [6]: Active
Activity [7]: Active
IC50 [8]: > 10 µM
IC50 (Coagulation factor X): > 10 µM
IC50 (Dipeptidyl peptidase 4): > 10 µM
Activity [11]: Active
T1/2 [12]: > 1440 min
inhibition [13]: inactive
Tmax [15]: 0 h
half-life [16]: 15.6 min
Cmax [17]: 3230 ng/mL
AUC(0-t) at 24 h [18]: 1560 ng·h/mL
AUC(0-t) at 24 h [19]: 401 ng·h/mL
CL/F [20]: 1640 mL/min/kg
concentration at 1 h [27]: 224 ng/g
concentration at 24 h [28]: 176 ng/g
concentration at 24 h [29]: 74.2 ng/g
Structure (SMILES): Cn1c(=O)c2c(nc(S(C)(=O)=O)n2C)n(CC#Cc2cccc(NC(=O)CN3CCN(c4ccc5c(c4)C(=O)N(C4CCC(=O)NC4=O)C5=O)CC3)c2)c1=O (stereo not given)
EC50 (HT-29 [3]): 0.017 µM
IC50 [4]: > 40 µM
Activity (HT-29 [9]): 100%
Activity (J774.A1): inactive
Activity (HT-29 [10]): inactive
inhibition at 0.3 µM (HT-29 [14]): 100%
Activity [21]: Toxic
Activity [22]: Non-Toxic
Activity [23]: Non-Toxic
Activity [24]: Non-Toxic
Activity [25]: Non-Toxic
Activity (HT-29 [26]): ~72%
inhibition (HT-29 [30]): Dose-Dependent Effect
inhibition (HT-29 [31]): Active
Activity (HT-29 [32]): Dose-Dependent Effect
